Structures are written as SMILES.

Common to all, as to format: in vivo
Experiment [1] deals with Beet Armyworm (Spodoptera exigua) ("BAW"), second instar larvae. The experiment is described as follows: Bioassay on beet armyworm (BAW), 128-well diet tray assay. Particulars: Spodoptera exigua, read-out: BAW (Biological Results, rating). In a few lines:
(§1)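 Read-out: percent larval mortality per well, averaged over 8 wells. Incubation 25° C., 14:10 L:D photoperiod, 5–7 days, trays sealed with clear adhesive cover.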

The test system of experiment [2] is Cabbage Looper (Trichoplusia ni) ("CL"), second instar larvae. The experiment in a line: Bioassay on cabbage looper (CL), 128-well diet tray assay. As to conditions: Trichoplusia ni, read-out: CL (Biological Results, rating). In a few lines: as §1
Experiment [3] has as its system Green Peach Aphid ("GPA") (Myzus persicae), wingless adult and nymph stages. The experiment is described as follows: Bioassay on green peach aphid (GPA), foliar spray on infested cabbage seedlings. As to conditions: Myzus persicae, foliar, 72 h, read-out: GPA (Biological Results, rating). Here is the method: Certain molecules disclosed in this document were tested against GPA using procedures described in the following example. In the reporting of the results, the “GPA Rating Table” was used (See Table Section).
Cabbage seedlings grown in 3-inch pots, with 2-3 small (3-5 cm) true leaves, were used as test substrate. The seedlings were infested with 20-50 GPA (wingless adult and nymph stages) one day prior to chemical application. Four pots with individual seedlings were used for each treatment. Test compounds (2 mg) were dissolved in 2 mL of acetone/methanol (1:1) solvent, forming stock solutions of 1000 ppm test compound. […] A hand-held aspirator-type sprayer was used for spraying a solution to both sides of […] leaves until runoff. Reference plants (solvent check) were sprayed with the diluent only containing 20% by volume of acetone/methanol (1:1) solvent. Treated plants were held in a holding room for three days at approximately 25° C. and ambient relative humidity (RH) prior to grading. Evaluation was conducted by counting the number of live aphids per plant under a microscope.
Corrected % Control=100*(X−Y)/X • where • X=No. of live aphids on solvent check plants and • Y=No. of live aphids on treated plants
The results are indicated in the table entitled “Table ABC: Biological Results” (See Table Section).

Regarding `CC(=O)c1ccc(C(C)C)c(N2C(=O)CS/C2=N\C(=O)Nc2ccc(-c3ncn(-c4ccc(OC(F)(F)F)cc4)n3)cc2F)c1` [Compound J77, (Z)-1-(3-(5-Acetyl-2-isopropylphenyl)-4-oxothiazolidin-2-ylidene)-3-(2-fluoro-4-(1-(4-(trifluoromethoxy)phenyl)-1H-1,2,4-triazol-3-yl)phenyl)urea], the pest or weed control at 50 µg/cm2 in experiment [1] and in experiment [2] was 50 to 100% in each case. For the same compound, the pest or weed control at 200 µg/mL in experiment [3] was in the range of 0 to 80%.
As for `CC(C)c1ccccc1N1C(=O)CS/C1=N\C(=O)Nc1ccc(-c2ncn(-c3ccc(OC(F)(F)F)cc3)n2)cc1F` [Compound J86, (Z)-1-(2-Fluoro-4-(1-(4-(trifluoromethoxy)phenyl)-1H-1,2,4-triazol-3-yl)phenyl)-3-(3-(2-isopropylphenyl)-4-oxothiazolidin-2-ylidene)urea], the pest or weed control at 50 µg/cm2 in experiment [1] and in experiment [2] was 50 to 100% each time. For the same compound, the pest or weed control at 200 µg/mL in experiment [3] was in the range of 0 to 80%.
For the compound `COC(C)c1ccccc1N1C(=O)CS/C1=N\C(=O)Nc1ccc(-c2ncn(-c3ccc(OC(F)(F)F)cc3)n2)cc1F` (stereo not drawn) [Compound J87, (Z)-1-(2-Fluoro-4-(1-(4-(trifluoromethoxy)phenyl)-1H-1,2,4-triazol-3-yl)phenyl)-3-(3-(2-(1-methoxyethyl)phenyl)-4-oxothiazolidin-2-ylidene)urea], the pest or weed control at 50 µg/cm2 in experiment [1] and in experiment [2] was 50 to 100% in each case. Moreover, the pest or weed control at 200 µg/mL in experiment [3] fell in the range of 0 to 80%.
For `N#Cc1ccc(OCCC(F)(F)F)c(N2C(=O)CS/C2=N\C(=O)Nc2ccc(-c3ncn(-c4ccc(OC(F)(F)F)cc4)n3)cc2F)c1` [Compound J103, (Z)-1-(3-(5-Cyano-2-(3,3,3-trifluoropropoxy)phenyl)-4-oxothiazolidin-2-ylidene)-3-(2-fluoro-4-(1-(4-(trifluoromethoxy)phenyl)-1H-1,2,4-triazol-3-yl)phenyl)urea], the pest or weed control at 50 µg/cm2 in experiment [1] and in experiment [2] was 50 to 100% each time. The pest or weed control at 200 µg/mL in experiment [3] was 0 to 80%.
Regarding `COC(=O)c1ccc(C(C)C)c(N2C(=O)CS/C2=N\C(=O)Nc2ccc(-c3ncn(-c4ccc(OC(F)(F)F)cc4)n3)cc2F)c1` [Compound J104, Methyl (Z)-3-(2-(((2-fluoro-4-(1-(4-(trifluoromethoxy)phenyl)-1H-1,2,4-triazol-3-yl)phenyl)carbamoyl)imino)-4-oxothiazolidin-3-yl)-4-isopropylbenzoate], the pest or weed control at 50 µg/cm2 in experiment [1] and in experiment [2] was 50 to 100% throughout. In addition, in experiment [3], the pest or weed control at 200 µg/mL was in the range of 0 to 80%.
Consider `CN(C)c1ccc(OCCC(F)(F)F)c(N2C(=O)CS/C2=N\C(=O)Nc2ccc(-c3ncn(-c4ccc(OC(F)(F)F)cc4)n3)cc2F)c1` [Compound J105, (Z)-1-(3-(5-(Dimethylamino)-2-(3,3,3-trifluoropropoxy)phenyl)-4-oxothiazolidin-2-ylidene)-3-(2-fluoro-4-(1-(4-(trifluoromethoxy)phenyl)-1H-1,2,4-triazol-3-yl)phenyl)urea], for which the pest or weed control at 50 µg/cm2 in experiment [1] and in experiment [2] was 50 to 100% in each case. In experiment [3], the pest or weed control at 200 µg/mL was 0 to 80%.
In the case of `Cc1cc(-c2ncn(-c3ccc(OC(F)(F)F)cc3)n2)ccc1NC(=O)/N=C1\SCC(=O)N1c1ccc(N(C)C)cc1C(C)C` [Compound J113, (Z)-1-(3-(4-(Dimethylamino)-2-isopropylphenyl)-4-oxothiazolidin-2-ylidene)-3-(2-methyl-4-(1-(4-(trifluoromethoxy)phenyl)-1H-1,2,4-triazol-3-yl)phenyl)urea], the pest or weed control at 50 µg/cm2 in experiment [1] and in experiment [2] was 50 to 100% throughout. The pest or weed control at 200 µg/mL in experiment [3] fell in the range of 0 to 80%.
In the case of `CC(C)c1ccc(N(C)C)cc1N1C(=O)CS/C1=N\C(=O)Nc1ccc(-c2ncn(-c3ccc(OC(F)(F)F)cc3)n2)cc1C(F)(F)F` [Compound J116, (Z)-1-(3-(5-(Dimethylamino)-2-isopropylphenyl)-4-oxothiazolidin-2-ylidene)-3-(4-(1-(4-(trifluoromethoxy)phenyl)-1H-1,2,4-triazol-3-yl)-2-(trifluoromethyl)phenyl)urea], the pest or weed control at 50 µg/cm2 in experiment [1] and in experiment [2] was 50 to 100% throughout. The pest or weed control at 200 µg/mL in experiment [3] was in the range of 0 to 80%.
Take `COC(C)c1ccc(C)cc1N1C(=O)CS/C1=N\C(=O)Nc1ccc(-c2ncn(-c3cccc(C(F)(F)F)c3)n2)cc1F` (stereo not drawn) [Compound J119, (Z)-1-(2-Fluoro-4-(1-(3-(trifluoromethyl)phenyl)-1H-1,2,4-triazol-3-yl)phenyl)-3-(3-(2-(1-methoxyethyl)-5-methylphenyl)-4-oxothiazolidin-2-ylidene)urea]: the pest or weed control at 50 µg/cm2 in experiment [1] and in experiment [2] was 50 to 100% throughout. For the same compound, the pest or weed control at 200 µg/mL in experiment [3] fell in the range of 0 to 80%.
In the case of `COC(C)c1ccc(C)cc1N1C(=O)CS/C1=N\C(=O)Nc1ccc(-c2ncn(-c3cccc(OC(F)(F)F)c3)n2)cc1F` (stereo not drawn) [Compound J120, (Z)-1-(2-Fluoro-4-(1-(3-(trifluoromethoxy)phenyl)-1H-1,2,4-triazol-3-yl)phenyl)-3-(3-(2-(1-methoxyethyl)-5-methylphenyl)-4-oxothiazolidin-2-ylidene)urea], the pest or weed control at 50 µg/cm2 in experiment [1] and in experiment [2] was 50 to 100% each time. In addition, in experiment [3], the pest or weed control at 200 µg/mL lay within 0 to 80%.
For `Cc1ccc(OCC(F)(F)F)c(N2C(=O)CS/C2=N\C(=O)Nc2ccc(-c3ncn(-c4cccc(C(F)(F)F)c4)n3)cc2F)c1` [Compound J122, (Z)-1-(2-Fluoro-4-(1-(3-(trifluoromethyl)phenyl)-1H-1,2,4-triazol-3-yl)phenyl)-3-(3-(5-methyl-2-(2,2,2-trifluoroethoxy)phenyl)-4-oxothiazolidin-2-ylidene)urea], the pest or weed control at 50 µg/cm2 in experiment [1] and in experiment [2] was 50 to 100% in each case. For the same compound, in experiment [3], the pest or weed control at 200 µg/mL lay within 0 to 80%.
Take `Cc1ccc(COCC(F)(F)F)c(N2C(=O)CS/C2=N\C(=O)Nc2ccc(-c3ncn(-c4ccc(OC(F)(F)F)cc4)n3)cc2F)c1` [Compound J123, (Z)-1-(2-fluoro-4-(1-(4-(trifluoromethoxy)phenyl)-1H-1,2,4-triazol-3-yl)phenyl)-3-(3-(5-methyl-2-((2,2,2-trifluoroethoxy)methyl)phenyl)-4-oxothiazolidin-2-ylidene)urea]: the pest or weed control at 50 µg/cm2 in experiment [1] and in experiment [2] was 50 to 100% each time. For the same compound, in experiment [3], the pest or weed control at 200 µg/mL lay in the range of 0 to 80%.
`CNc1ccc(C(C)C)c(N2C(=O)CS/C2=N\C(=O)Nc2ccc(-c3ncn(-c4ccc(OC(F)(F)F)cc4)n3)cc2C)c1` [Compound J126, (Z)-1-(3-(2-Isopropyl-5-(methylamino)phenyl)-4-oxothiazolidin-2-ylidene)-3-(2-methyl-4-(1-(4-(trifluoromethoxy)phenyl)-1H-1,2,4-triazol-3-yl)phenyl)urea]: the pest or weed control at 50 µg/cm2 in experiment [1] and in experiment [2] was 50 to 100% throughout. Also, the pest or weed control at 200 µg/mL in experiment [3] lay within 0 to 80%.
With `CCNc1ccc(C(C)C)c(N2C(=O)CS/C2=N\C(=O)Nc2ccc(-c3ncn(-c4ccc(OC(F)(F)F)cc4)n3)cc2C)c1` [Compound J127, (Z)-1-(3-(5-(Ethylamino)-2-isopropylphenyl)-4-oxothiazolidin-2-ylidene)-3-(2-methyl-4-(1-(4-(trifluoromethoxy)phenyl)-1H-1,2,4-triazol-3-yl)phenyl)urea], the pest or weed control at 50 µg/cm2 in experiment [1] and in experiment [2] was 50 to 100% each time. Further, the pest or weed control at 200 µg/mL in experiment [3] was in the range of 0 to 80%.
In the case of `COc1ccc(C(C)C)c(N2C(=O)CS/C2=N\C(=O)Nc2ccc(-c3ncn(-c4cccc(C(F)(F)F)c4)n3)cc2C)c1` [Compound J132, (Z)-1-(3-(2-Isopropyl-5-methoxyphenyl)-4-oxothiazolidin-2-ylidene)-3-(2-methyl-4-(1-(3-(trifluoromethyl)phenyl)-1H-1,2,4-triazol-3-yl)phenyl)urea], the pest or weed control at 50 µg/cm2 in experiment [1] and in experiment [2] was 50 to 100% each time. Besides, in experiment [3], the pest or weed control at 200 µg/mL is 0 to 80%.
For `Cc1cc(-c2ncn(-c3cccc(C(F)(F)F)c3)n2)ccc1NC(=O)/N=C1\SCC(=O)N1c1cc(N(C)C)ccc1C(C)C` [Compound J133, (Z)-1-(3-(5-(Dimethylamino)-2-isopropylphenyl)-4-oxothiazolidin-2-ylidene)-3-(2-methyl-4-(1-(3-(trifluoromethyl)phenyl)-1H-1,2,4-triazol-3-yl)phenyl)urea], the pest or weed control at 50 µg/cm2 in experiment [1] and in experiment [2] was 50 to 100% in each case. Further, the pest or weed control at 200 µg/mL in experiment [3] is 0 to 80%.
In the case of `Cc1ccc(OCCC(F)(F)F)c(N2C(=O)CS/C2=N\C(=O)Nc2ccc(-c3ncn(-c4cccc(C(F)(F)F)c4)n3)cc2C)c1` [Compound J134, (Z)-1-(3-(5-Methyl-2-(3,3,3-trifluoropropoxy)phenyl)-4-oxothiazolidin-2-ylidene)-3-(2-methyl-4-(1-(3-(trifluoromethyl)phenyl)-1H-1,2,4-triazol-3-yl)phenyl)urea], the pest or weed control at 50 µg/cm2 in experiment [1] and in experiment [2] was 50 to 100% throughout. Further, the pest or weed control at 200 µg/mL in experiment [3] was 0 to 80%.

Source of the values: patent US20230077362A1 (CORTEVA AGRISCIENCE LLC, priority 2019, published 2023).
